Experimental data from publication PMC12675575, “A BRET biosensor for measuring uncompetitive engagement of PRMT5 complexes in cells” (Nature Communications, 2025).
Where two headings read alike, the source gives them in different places.

Biological target: NanoLuc-PRMT5 co-expressed with WDR77 (Homo sapiens, UniProt O14744)
Assay: Live-cell NanoBRET target engagement with BRET probe CBH-002 in HEK293 cells expressing NanoLuc-PRMT5 and unlabeled WDR77
Format: cell-based
Design: host or cells: HEK293
Conditions: HEK293, Figure S2H, log([compound]), read-out: normalised BRET, Bio rep 1-3; for remaining activity at 0.3715 µM: uM -0.43; for remaining activity at 0.04074 µM: uM -1.39; for remaining activity at 0.0138 µM: uM -1.86; for remaining activity at 0.004571 µM: uM -2.34; for remaining activity at 0.001514 µM: uM -2.82; for remaining activity at 0.0005129 µM: uM -3.29; for remaining activity at 0.0001698 µM: uM -3.77
Procedure: HEK293 cells (ATCC) were cultured in DMEM (Thermo Fisher) + 10% (v/v) FBS (Seredigm), and HCT116 cells (Horizon Discovery, #PAR-034 and #R02-033) were cultured in McCoy’s 5A (Thermo Fisher) + 10% FBS, with incubation in a humidified, 37 °C/5% CO2 incubator. Cells were split 1–3 days prior to performing experiments and used at roughly 80% confluency. […] Cells were transfected according to the manufacturer’s protocol using FuGENE HD (Promega). NanoLuc fusion DNA was diluted into Transfection Carrier DNA (Promega) in Opti-MEM at a ratio of 1:9 (mass/mass), and FuGENE HD was added at a ratio of 1:3 (μg DNA:μL lipid). […] Formed complexes were combined with cells resuspended to a density of 2 × 10^5 cells/mL in Opti-MEM + 1% FBS at a ratio of 1:20 (vol:vol). […] Cells were seeded at a density of 2 × 10^5 cells/mL in Opti-MEM + 1% FBS in 100 μL (96-well). The BRET probe CBH-002 was prepared first as a 100× stock in 100% DMSO (Sigma) and then diluted to a 20× stock in NanoBRET Tracer Dilution buffer (Promega). Test compounds were prepared as 1000× stocks in 100% DMSO and diluted to 10× stocks in Opti-MEM to prepare working stocks. […] NanoBRET Complete 3x Substrate was prepared by combining Nano-Glo Substrate and Extracellular NanoLuc Inhibitor in Opti-MEM, according to the manufacturer’s protocol (Promega).
BRET ratio values were calculated by dividing the acceptor by the donor signal, and raw BRET was converted to milli-BRET (mBRET) units (mBu) by multiplying by 1000.
EC50 values were obtained by fitting the BRET probe and compound affinity curves to a sigmoidal four-parameter fit model in Graphpad Prism:1 Y=Ymin+Ymax−Ymin/1+10^LogEC50−Xh where h is the Hill Slope.
When normalized BRET was used, mBRET values were normalized using2 NormalizedBRET%=(Y−BRETmin)/BRETmax−BRETmin where y = mBRET in the presence of test compound and BRET probe, BRETmin = mBRET at the highest concentration (saturating) of test compound and BRET probe, and BRETmax = mBRET in the presence of vehicle (DMSO) and BRET probe.
Normalized concentration-response curves showing full competition were fit using a 2-parameter model:3 Y=100/1+10^LogEC50−Xh
In situations where only partial competition was observed, the normalized concentration-response curves were fit using Eq. 1 and where Ymin was constrained to >0.

Sequence of NanoLuc-PRMT5 co-expressed with WDR77 (O14744 whole entry): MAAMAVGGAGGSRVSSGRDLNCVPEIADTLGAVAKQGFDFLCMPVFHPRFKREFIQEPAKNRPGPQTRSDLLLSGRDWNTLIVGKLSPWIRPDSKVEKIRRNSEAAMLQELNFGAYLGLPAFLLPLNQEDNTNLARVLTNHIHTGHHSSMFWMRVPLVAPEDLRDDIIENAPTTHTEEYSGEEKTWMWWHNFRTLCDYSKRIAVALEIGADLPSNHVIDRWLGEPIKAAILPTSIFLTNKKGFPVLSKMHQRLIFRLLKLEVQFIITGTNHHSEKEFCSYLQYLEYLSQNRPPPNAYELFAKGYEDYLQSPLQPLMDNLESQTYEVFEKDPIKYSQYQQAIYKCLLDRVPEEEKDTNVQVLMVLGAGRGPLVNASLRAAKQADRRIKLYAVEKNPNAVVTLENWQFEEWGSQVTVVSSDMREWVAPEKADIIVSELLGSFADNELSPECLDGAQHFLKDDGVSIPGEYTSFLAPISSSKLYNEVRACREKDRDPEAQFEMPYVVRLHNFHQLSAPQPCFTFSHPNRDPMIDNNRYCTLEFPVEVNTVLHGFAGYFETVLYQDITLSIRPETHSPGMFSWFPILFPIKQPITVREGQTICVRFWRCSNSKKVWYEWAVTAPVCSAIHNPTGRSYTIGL
Sequence of NanoLuc-PRMT5 co-expressed with WDR77 (Q9BQA1 whole entry partner): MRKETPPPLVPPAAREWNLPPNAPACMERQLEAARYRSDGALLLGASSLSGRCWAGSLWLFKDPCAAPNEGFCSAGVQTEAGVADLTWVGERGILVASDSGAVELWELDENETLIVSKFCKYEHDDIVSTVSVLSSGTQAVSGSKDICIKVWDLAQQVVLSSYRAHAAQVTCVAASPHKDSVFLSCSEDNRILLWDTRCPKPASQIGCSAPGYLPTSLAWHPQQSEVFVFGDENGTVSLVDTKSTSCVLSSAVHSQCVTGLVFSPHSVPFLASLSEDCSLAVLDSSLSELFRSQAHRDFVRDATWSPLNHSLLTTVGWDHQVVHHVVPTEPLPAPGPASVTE

Row | remaining activity at […] (uM 0.0458) | remaining activity at […] (uM 0.52) | remaining activity at 0.3715 µM | remaining activity at […] (uM -0.91) | remaining activity at 0.04074 µM | remaining activity at 0.0138 µM | remaining activity at 0.004571 µM | remaining activity at 0.001514 µM | remaining activity at 0.0005129 µM | remaining activity at 0.0001698 µM | Compound
1 | 100% | 99% | 102% | 102% | 101% | 101% | 99.8% | 97.9% | 97.6% | 97.4% | CNCCN1CCC(c2cc(CN(C)C(=O)c3cccc(Oc4ccccc4)c3)ccn2)CC1 [TP064, reference compound]
2 | 103% | 102% | 102% | 103% | 103% | 104% | 101% | 102% | 103% | 98% | CC(C)Oc1ccc(-c2c[nH]cc2CN(C)CCN)cc1 [MS023, reference compound]
